This experiment has as its target T1, Dimer of Gag-Pol polyprotein [501-599,Q508K,L534I,L564I,C568A,C596A] (Human immunodeficiency virus 1, UniProt P03367, C568A/C596A/L534I/L564I/Q508K).
T1 construct: 501-599
Put plainly: Protease Inhibition Assay. The note with it: pH 6.4; 25 °C. As for the experimental part:
The Ki values were determined using fluorogenic substrate, 2-(aminobenzoyl)-Thr-Ile-Nle-Phe(p-NO2)-Gln-ArgNH2. A standard curve relating changes in fluorescent intensity to changes in concentration of product was used to convert fluorescent changes into molar velocities. The amount of cleavage was determined by HPLC.

Bounds are passed on as bounds.

With `O=C(N[C@H]1c2ccccc2C[C@H]1O)[C@H](Cc1ccccc1)C[C@H](O)CN1C(=O)[C@H](Cc2ccccc2)C[C@@H]1Cc1ccccc1` [(2R,4S)-2-benzyl-5-[(3R,5R)-3,5-dibenzyl-2-oxopyrrolidin-1-yl]-4-hydroxy-N-[(1S,2R)-2-hydroxy-2,3-dihydro-1H-inden-1-yl]pentanamide], the Ki was above 0.5 nM.

Source of the values: BindingDB's records for doi:10.1016/s0960-894x(00)00163-3 (Glaxosmithkline, 2000).
